Source: patent US20130287688A1, “NOVEL COMPOSITIONS AND USES OF ANTI-HYPERTENSION AGENTS FOR CANCER THERAPY” (XTUIT PHARMACEUTICALS, INC., priority 2010, published 2013)

Key:
[1] = Mean arterial blood pressure (MABP) in mice
Procedure: In the following Examples, 20 mg/kg/day dose was used (but it by no means limits the use of other doses in the methods described herein).

[2] = tested on: HSTS26T tumors; assay: Second harmonic generation (SHG) imaging of fibrillar collagen in dorsal skin fold chamber tumors; type: in vivo, SCID mice; conditions: for decrease in SHG levels (collagen): end of 15 days
Procedure: Cozaar (losartan potassium) tablets were ground using a mortar and pestle. The powder was then dissolved in water to obtain a concentration of 2.5 mg/ml. The solution was then filtered and stored in a sterile container.
Second Harmonic Imaging (SHG) imaging was performed in dorsal chamber tumors with a custom-built multiphoton laser-scanning microscope (Brown E, et al. (2003) Nat Med 9:796-800). Polarized light from a Ti:Sapphire laser (Mai-Tai Broadband: Spectra-Physics, Mountain View, Calif.) was converted to circularly polarized light using a zero order quarter wave plate (Newport Corporation, Irvine, Calif.). An excitation wavelength of 810 nm and detected SHG signals at 405 nm was used. SCID mice bearing HSTS26T tumors in dorsal chambers were either treated with losartan (10, 20 or 60 mg/kg/day) or saline for the duration of the dose response experiment (15 days). Vascular markers were used to locate 4 regions of interest in each mouse and periodically returned to the same region of SHG imaging. SHG images were analyzed with a custom-built Matlab (The MathWorks, Inc., Natick, Mass.) code. The fraction of the region of interest (ROI) that was positive for the SHG signal was normalized to the amount of SHG signal obtained on day 1 of the dose response study (before initiation of losartan or saline treatment).

[3] = tested on: E0771 tumors; assay: Mathematical analysis of perfused vessel network (multiphoton microscopy); type: in vivo, mice
[4] = tested on: Mu89 tumors; assay: Necrosis 21 days after HSV injection; type: in vivo, mice; conditions: losartan prior to HSV injection
Excerpt: (§1) Hematoxylin staining of intact tumor areas, necrosis, and HSV immunostaining is shown. Necrotic regions are indicated by black arrows. Even though there was no detectable difference in necrotic area between HSTS26T and MU89, necrosis is confined to specific regions in MU89 while there is necrotic tissue (bounded by HSV immunostaining) throughout HSTS26T tumors. Scale bar=2 mm.
(§2) To determine the relationship between virus infection, necrosis and collagen structure 21 days after the HSV injection, consecutive paraffin sections were stained with either a polyclonal HSV-1 antibody (DAKO, Glostrup Denmark) or a collagen I antibody (LF-67). For collagen I staining in paraffin sections, slides were treated with 3% hydrogen peroxide prior to antigen retrieval with Target Retrieval Solution, pH 9 (DAKO, Carpinteria, Calif.). The slides were then treated with 0.05% trypsin before the primary collagen I antibody was applied at a dilution of 1:500. Sections stained with collagen I or HSV were imaged with a light microscope.

[5] = tested on: HSTS26T tumors; assay: Necrosis 21 days after HSV injection; type: in vivo, mice; conditions: losartan prior to HSV injection
Excerpt: as §1, §2

[6] = tested on: E0771 tumors; assay: Hypoxic fraction by pimonidazole staining; parameters: species or system mice; conditions: mouse, in vivo
Procedure: Losartan decreases the hypoxic fraction in E0771 tumors (P=0.027, Student's t-test) due to the increase in oxygen delivery.
Oxygenation was then studied using phosphorescence quenching microscopy. […] This decrease in tumor hypoxia was confirmed by using pimonidazole staining (FIGS. 29D and 30). To determine if losartan also increases nanomedicine delivery, which is dependent on both vascular supply and penetration across vessel walls into tumor tissue, nanoparticle penetration was measured using intravital multiphoton microscopy. Nanoparticle penetration rates were quantified as transvascular mass flux per unit vascular surface area and transvascular concentration difference, termed as the effective permeability. […] Penetration rates are largely dependent on fluid flow through the viscoelastic and tortuous tumor interstitium, which is a function of interstitial hydraulic conductivity. It was determined that losartan also increases the hydraulic conductivity of E0771 tumors (FIG. 31), likely through its anti-matrix effects, and a mathematical model (Chauhan V P, et al., Nature Nanotechnology. 2012; advance online publication) was used to confirm that this can improve the penetration rate of all sizes of nanomedicines (FIG. 32). Thus, “microenvironmental normalization” with ARBs and ACE-Is increases the delivery of oxygen and all sizes of therapeutics to tumors. […]

Structure (SMILES): CCCCc1nc(Cl)c(CO)n1Cc1ccc(-c2ccccc2-c2nn[nH]n2)cc1 [losartan]
- reduction in mean arterial blood pressure (MABP) ([1]; 20 mg/kg/day, after 2 weeks): 10 mm Hg
- reduction in mean arterial blood pressure (MABP) ([1]; 60 mg/kg/day): 35 mm Hg
- intratumoral SHG signal intensity ([2]; 10 mg/kg/day i.p.): did not have a significant effect
- decrease in SHG levels (collagen) ([2]; 10 mg/kg/day i.p.): 20%
- intratumoral SHG signal intensity ([2]; 20 mg/kg/day i.p.): significantly reduced
- decrease in SHG levels (collagen) ([2]; 20 mg/kg/day i.p.): 33%
- intratumoral SHG signal intensity ([2]; 60 mg/kg/day i.p.): significantly reduced
- decrease in SHG levels (collagen) ([2]; 60 mg/kg/day i.p.): 67%
- fractal dimension of vessel network ([3]; from a typical 1.89 in tumors toward 2.0 of normal capillary beds): increases
- maximum distance drugs and oxygen must travel to reach tumor cells ([3]; pre- and post-treatment (days 2-5)): decreases
- necrosis in tumors [4]: two-fold increase
- necrosis in tumors [5]: two-fold increase
- hypoxic fraction [6]: decreases
